6 compounds from US6455057B1, “Skin care composition” (Elizabeth Arden Co., div. of Conopco, Inc., priority 1999, dated 2002) can be followed below.

Where “and” joins values, the source holds several entries; their conditions need not be identical. Equal values may be shown once.

The inhibition is how much of the control response was suppressed.

Assay type in all cases: cell-based
For assay [1], the system named is procollagen-I synthesis in human dermal fibroblasts. Kind of assay: Dot blot assay for procollagen-I protein in dermal fibroblast conditioned medium. To be noted: vehicle control = 100.
Experimental: (§1) Primary human foreskin fibroblasts at passage 2 (P2) were seeded into 12-well plates at 10000 cells/cm^2 and maintained for 24 hours in an atmosphere of 5% carbon dioxide and 4% oxygen in Dulbeccos Modified Eagles Medium (DMEM) supplemented with 10% foetal calf serum. After this time the cells were washed with serum free DMEM and then incubated in fresh serum free DMEM for a further 60 hours. The fibroblast monolayers were then washed again with serum free DMEM. Test reagents and vehicle controls were added to the cells in triplicate in a final volume of 0.4 ml/well fresh serum free DMEM and incubated for a further 24 hours. This fibroblast conditioned medium was either analysed immediately or snap frozen in liquid nitrogen and stored at −70° C. for future analysis. The cells were then counted and data from the dot-blot analysis subsequently standardised to cell number.
(§2) Samples of conditioned medium from dermal fibroblasts treated with vehicle (as a control) or test reagents were supplemented with 20 mM dithiothreitol (1:10 dilution of 200 mM stock solution) and 0.1% sodium dodecylsulphate (1:100 dilution of 10% stock solution), mixed well and then incubated at 75° C. for 2 minutes. A standard for the assay was generated by serial dilution of neat fibroblast conditioned medium from fibroblasts seeded at 10000 cells/cm^2 in a 175 cm^2 flask and maintained in serum free DMEM as described above.
Assay samples were subsequently applied in triplicate to a prewetted sheet of Immobilon-P transfer membrane using the 96-well Bio-Dot Apparatus from Bio-Rad as described in the manufacturers guidelines. Approximately 200 μl of medium was applied per well. The medium was allowed to filter through the membrane under gravity (30 minutes) after which the membrane was washed twice with PBS (200 μl). These PBS washes were allowed to filter through the membrane under gravity (2×15 minutes). The Bio-Dot apparatus was then attached to a vacuum manifold and a third and final PBS wash carried out under suction. The apparatus was disassembled, the membrane removed and quickly cut as required before being placed in blocking buffer overnight at 4° C. […]
Following this the Immobilon strips were again washed with TBS/Tween 20 (3×5 minutes) before being allowed to dry in air at room temperature. […] Dot intensity was assessed by computer-assisted image analysis using the quantification tools in ImageQuant™, standardised to cell number and the effects of various test reagents on decorin and procollagen-I synthesis were determined relative to a vehicle treated control value of 100 arbitrary units.
For assay [2], the system named is decorin synthesis in human dermal fibroblasts. Kind of assay: Dot blot assay for decorin protein in dermal fibroblast conditioned medium.
Experimental: as §1, §2
Assay samples were subsequently applied in triplicate to a prewetted sheet of Immobilon-P transfer membrane using the 96-well Bio-Dot Apparatus from Bio-Rad as described in the manufacturers guidelines. Approximately 200 μl of medium was applied per well. The medium was allowed to filter through the membrane under gravity (30 minutes) after which the membrane was washed twice with PBS (200 μl). These PBS washes were allowed to filter through the membrane under gravity (2×15 minutes). The Bio-Dot apparatus was then attached to a vacuum manifold and a third and final PBS wash carried out under suction. The apparatus was disassembled, the membrane removed and quickly cut as required before being placed in blocking buffer overnight at 4° C. Membranes prepared for decorin analysis were blocked with 3% (w/v) BSA/0.1% (v/v) Tween 20 in PBS, whilst those for procollagen-I analysis were blocked with 5% (w/v) non fat dried milk powder/0.05% Tween 20 in PBS.
Following this the Immobilon strips were again washed with TBS/Tween 20 (3×5 minutes) before being allowed to dry in air at room temperature. The dried membranes were wrapped in cellophane and exposed to a Molecular Dynamics storage phosphor screen for 16-18 hours. At the end of this time the exposed screen was scanned by a phosphorimager (Molecular Dynamics Phosphorimager SF) using ImageQuant™ software. Dot intensity was assessed by computer-assisted image analysis using the quantification tools in ImageQuant™, standardised to cell number and the effects of various test reagents on decorin and procollagen-I synthesis were determined relative to a vehicle treated control value of 100 arbitrary units.
Assay [3] relates to PGE2 production by human skin fibroblasts. Kind of assay: Fibroblast PGE2 assay (PMA-induced). As to conditions: PMA 10 nM + genistein 1 μM, read-out: % of Inhibition Of Fibroblast PGE2 Levels.
Experimental: Primary human foreskin fibroblasts at passage 2 (P2) were seeded into 96-well plates at 10000 cells/well and maintained for 24 hours in an atmosphere of 5% carbon dioxide in Dulbeccos Modified Eagles Medium (DMEM) supplemented with 10% foetal calf serum. The test substances as indicated in the table 2 below were added to fresh cell media (DMEM, supplemented with 10% foetal calf serum) in dimethylsulphoxide and ethanol final concentration<1%) in triplicate and incubated for a further 24 hours. Phorbal myristate acetate (PMA) (Sigma) was added 10 nM to the media and the cells incubated for a further 24 hours. […] The fibroblasts/media were then analysed as described below immediately or snap frozen in liquid nitrogen and stored at −70° C. for future analysis.
Volumes of 50 μl culture medium were taken for PGE2 assay after gently shaking the culture plate. PGE2 levels in the medium were determined with a Biotrak PGE2 immunoassay kit (Amersham, UK). The assay is based on the competition between unlabelled PGE2 in the sample and a fixed quantity of horseradish peroxidase labelled PGE2 for a limited amount of fixed PGE2 specific antibody. Concentrations of unlabelled sample PGE2 are determined according to a standard curve which was obtained at the same time.
In assay [4] the test system is ICAM production by human skin fibroblasts. Kind of assay: Fibroblast ICAM-1 assay (PMA-induced).
Experimental: Intracellular adhesion molecules (ICAM) and PEG2 production by human skin fibroblasts can be induced by the inflammatory stimulus PMA (phorbal myristate acetate). PMA represents an external stressor which induces oxidative stress and inflammatory responses in cells.
Primary human foreskin fibroblasts at passage 2 (P2) were seeded into 96-well plates at 10000 cells/well and maintained for 24 hours in an atmosphere of 5% carbon dioxide in Dulbeccos Modified Eagles Medium (DMEM) supplemented with 10% foetal calf serum. The test substances as indicated in the table 2 below were added to fresh cell media (DMEM, supplemented with 10% foetal calf serum) in dimethylsulphoxide and ethanol final concentration<1%) in triplicate and incubated for a further 24 hours. Phorbal myristate acetate (PMA) (Sigma) was added 10 nM to the media and the cells incubated for a further 24 hours. […] The fibroblasts/media were then analysed as described below immediately or snap frozen in liquid nitrogen and stored at −70° C. for future analysis. The cells were then counted and data from the dot-blot analysis subsequently standardised to cell number.
Media were discarded and cells washed with Dulbecco PBS. To the washed cells, 150 μl 0.1% Triton X-100 (Sigma) was added for 3 minutes to extract ICAM from cell membrane. The extracts were transferred to Eppendoff centrifuge tubes and centrifuged at 1000 g for 2 min to remove cell debris. A volume of 100 μl supernatant was used for ICAM assay. The soluble ICAM-1 was assessed with commercially available immunoenzymometric assay kit (R&D Systems). Concentrations of ICAM-1 in the samples were determined based on parallel running standard curve.

Regarding `CCCCCCCCCCC/C=C\CCCCC(=O)O` [PA, petroselinic acid], the Procollagen-I in assay [1] (0.01 μM PA) is 117.34%; in assay [1] (0.1 μM PA), 90.94%. The Decorin is 102.7% and 100.9% and 95.08% and 93.97% and 93.7% and 91.6% in assay [2] (0.01 μM PA, relative to vehicle treated control = 100 arbitrary units, separate experiments); 100.3% in assay [2] (0.1 μM PA, vehicle control = 100).
In turn, `O=c1c(-c2ccc(O)cc2)coc2cc(O)cc(O)c12` [genistein] returned a Procollagen-I in assay [1] (1 μM genistein) of 101.74%. The compound also had a Decorin in assay [2] (1 μM genistein, vehicle control = 100) of 99.75%. The inhibition at 1 µM came to 86.2% in assay [3] and 30.6% in assay [4] (Homo sapiens, Skin fibroblast, PMA 10 nM + genistein 1 μM).
Turning to `O=C(O[C@@H]1Cc2c(O)cc(O)cc2O[C@@H]1c1cc(O)c(O)c(O)c1)c1cc(O)c(O)c(O)c1` [EGCG, epigallocatechin gallate], the Decorin was found to be 118.4% in assay [2] (0.005 μg/ml EGCG, vehicle control = 100); 111.7% in assay [2] (0.05 μg/ml EGCG, vehicle control = 100); 120.2% in assay [2] (0.5 μg/ml EGCG, vehicle control = 100). Besides, in assay [4] (PMA 10 nM + EGCG 10 μM), the “% of inhibition of fibroblast ICAM production” value came out at 14.4%.
Consider `O=c1c(-c2ccc(O)cc2)coc2cc(O)ccc12` [daidzein], for which the Procollagen-I in assay [1] (0.01 μM daidzein) was 96.04%. In assay [2] (0.01 μM daidzein, vehicle control = 100), this compound registered a Decorin of 92.83%.
As to `O=c1c(O)c(-c2ccc(O)c(O)c2)oc2cc(O)cc(O)c12` [quercetin], the Decorin in assay [2] (1 μM quercetin, vehicle control = 100) was determined as 97.60%. In assay [4] (Homo sapiens, Skin fibroblast, PMA 10 nM + quercetin 10 μM), the inhibition at 10 µM came out at 27.8%.
For the compound `O=C(O)c1cc(O)c(O)c(O)c1` [gallic acid], the Decorin in assay [2] (0.001 μg/ml gallic acid, vehicle control = 100) is 96.6%.
